Data set [1] is described as follows: Solubilization of ethercaine: maximum solubility. Type of data set: physicochemical. The text has this: Since ETH itself, as a free base, is virtually insoluble in water and only partially soluble in 4% solution of Kolliphor ELP, at the first stage it was decided to study the effects of increasing the concentration of Kolliphor ELP and replacing it with Pluronic F127. Pluronic F127 is also an FDA-approved solubilizer of a different nature to the Kolliphor ELP, so it was selected as an alternative solubilizer for the study. Both substances are surfactants capable of forming direct micelles in aqueous solutions for loading hydrophobic compounds that are sparingly soluble in water. We chose a 4% concentration of Kolliphor ELP as the initial concentration that is suitable for the solubilization of hydrophobic dyes but is safe for clinical use, including for intravenous administration. In the case of other administration routes, for example, for ophthalmic use, this concentration can be increased. For further studies, we chose a 10% concentration of Kolliphor ELP. Despite an almost two-fold increase in the maximum solubility of ETH (Table 1) with an increase in the concentration of Kolliphor ELP from 4% to 10%, data on biological activity indicated an unstable and undulating local anesthetic effect on the cornea of the rabbit eye according to the Regnier method, which appeared to be due to the delayed drug release at high surfactant concentrations.
At the next stage of the solubility study, micelle-forming solubilizers and an anesthetic in the form of the ETH·HCl salt were used.
A solution of 4-(2-(N-morpholino)-ethoxy)-azobenzene hydrochloride (2) (50.0 mg) in dichloromethane (2 mL) was added dropwise to a freshly prepared 4% aqueous solution of solubilizer (Kolliphor® ELP or Pluronic F127) (5 mL) heated to 45 °C with continuous argon bubbling. Bubbling was continued until strong foaming started. A clear orange solution with a concentration of 1.0% was obtained, which was subsequently filtered in turn through 0.45 µm PTFE filter and then through 0.22 µm PTFE filter.

Data set [2] can be described thus: Spectrophotometric determination of Z→E half-transformation time (t1/2) in solutions. Type of data set: physicochemical. The settings on record: after 365 nm irradiation, thermal back Z→E, room temperature. The method, then:
This parameter depends on a number of conditions, including the solvent; therefore, at the next stage, the effect of the solubilizer on the t1/2 value was examined. The study was carried out by a standard method using UV/Vis spectrophotometry. At the beginning of the experiment, the spectrum of the initial photostationary state (PSS) with predominance of the E-form was recorded, after which the solution was irradiated with UV light (λ = 365 nm) and the spectrum of the resulting PSS, with predominance of the Z-form, was recorded.
Next, the rate of reverse isomerization was monitored by measuring the absorption intensity at 5 min intervals. […]
UV/Vis spectroscopy was used for the time determination of Z-isomers’ half-lifes. […] Then, lnAt/A0 values were calculated using Equation (1):(1) lnAt/A0=lnAbsPSS(dark)−Abstime/AbsPSS(dark)−AbsPSS(365nm), where AbsPSS(dark) , AbsPSS(365nm), and Abstime are absorbance values at λmax(E) in the dark at the beginning of the experiment, after UV light (λ = 365 nm) irradiation and at different time points from 0 to 60 min, respectively. Then, a graph was plotted depending on the lnAt/A0 values from the time, a trend line was calculated and a first-order rate constant (k) for the thermal back Z–E isomerization reaction was obtained as the slope of the trend line. […]

The subject of data set [3] is rabbit eye cornea. Briefly: Local anesthetic activity, surface anesthesia on rabbit eye cornea, Regnier method. The conditions noted are these: solutions irradiated with UV light λ = 365 nm vs dark.
Source text: The essence of the method is to estimate the number of eye closures during the tactile exposure of the cornea of a rabbit’s eye. According to the method, four animals (eight experimental points) were selected for each group, except two groups with a negative control. For the latter two animals (four experimental points) were used due to the lack of the activity and to minimize the number of animals in the experiment. The animals were randomly divided into four experimental (1% ETH·HCl in 4% Kolliphor ELP or in 4% Pluronic F127, two modes with and without UV irradiation) and four control groups (4% Kolliphor ELP or 4% Pluronic F127, two modes with and without UV irradiation).
For determination of the sensitivity of rabbit eye cornea using the surface anesthesia method, a total of four rabbits with a basic sensitivity threshold of 1–2 touches were selected. […]
Before the experiment began, the animal was restrained, leaving only its head free. The eyelashes were cut and the sensitivity threshold was determined for each eye. […] After that, the sensitivity threshold of the eye cornea to tactile impact was determined. […] Each time, tactile stimulation of the same strength and rhythm was applied to the cornea and the minimum number of touches causing the eyelids to close (but no more than 100 touches and no longer than for 1 min) was recorded.
Data set [4] concerns rabbit eye cornea. Further details: method as in PMID 35628162. The settings on record: n = 8, cited from earlier work.
Details of data set [5]: method as in PMID 35628162. The conditions noted are these: in 4% Kolliphor ELP; cited from earlier work.
[6] abbreviates: aqueous micellar solution of Kolliphor ELP, aqueous with cosolvent or surfactant or cyclodextrin, 4% micellar solution of Kolliphor ELP, read-out: Maximum Solubility of Ethercaine.
The mark [7] stands for this setting: aqueous micellar solution of Pluronic F127, aqueous with cosolvent or surfactant or cyclodextrin, 4% micellar solution of Pluronic F127, read-out: Maximum Solubility of Ethercaine.
The mark [8] stands for this setting: water without excipients, water, no excipients, read-out: Maximum Solubility of Ethercaine.

Molecules are shown by their SMILES. In brackets after ≈: the same amount, converted by molar mass. Where a name gives a salt, the structure may show the parent alone. Read-outs that look alike come from different tables or passages of the source. Marks after values point to notes of the source that are not given here. Where only a bound is given, the exact number is not on record here.

As for `c1ccc(/N=N/c2ccc(OCCN3CCOCC3)cc2)cc1` [ETH·HCl, 4-(2-(N-Morpholino)-Ethoxy)-Azobenzene Hydrochloride], the solubility in data set [1] (aqueous micellar solution of Kolliphor ELP, 4% micellar solution of Kolliphor ELP, read-out: Maximum Solubility of Ethercaine) is not below 20000 µg/mL; in data set [1] (setting [6]) it was more than 20000 µg/mL; in data set [1] (aqueous micellar solution of Pluronic F127, 4% micellar solution of Pluronic F127, read-out: Maximum Solubility of Ethercaine), not below 20000 µg/mL; in data set [1] (setting [7]) it was more than 20000 µg/mL; in data set [1] (setting [8]), 6000 µg/mL. Also, the “Half-Transformation Time (t1/2)” value in data set [2] (4% micellar solution of Kolliphor ELP) worked out at 0.85 h; in data set [2] (4% micellar solution of Pluronic F127), 1.15 h. For the same compound, the “decrease in the local anesthetic effect on UV irradiation (factor)” value in the data set with rabbit eye cornea [3] is on record as 16–20.

For `CCN(CC)CC(=O)Nc1c(C)cccc1C` [2% lidocaine hydrochloride, lidocaine hydrochloride], the “Regnier Index (Min—13, Max—1300)” value is recorded as 451 ± 40 (n = 8) ^a with rabbit eye cornea [4] (Dark) and 469 ± 37 (n = 8) ^a in the data set on rabbit eye cornea [4] (UV λ = 365 nm).

On to `c1ccc(N=Nc2ccc(OCCN3CCOCC3)cc2)cc1` [ETH, 4-(2-(N-Morpholino)-ethoxy)-azobenzene], for which the solubility is 6000 µg/mL (≈ 19.3 mM) in data set [1] (setting [6]); 10000 µg/mL (≈ 32.1 mM) in data set [1] (aqueous micellar solution of Kolliphor ELP, aqueous with cosolvent or surfactant or cyclodextrin, 10% micellar solution of Kolliphor ELP, read-out: Maximum Solubility of Ethercaine); 7000 µg/mL (≈ 22.5 mM) in data set [1] (setting [7]); 0.6% in data set [1] (before development of the dosage form); not below 2% in data set [1] (developed dosage form); less than 1000 µg/mL in data set [1] (setting [8]). The “solubility of the anesthetic in water” value is recorded as 0.6 wt.% in data set [1] (before the hydrochloride micellar dosage forms); not below 2 wt.% in data set [1] (dosage forms based on micellar solutions of Kolliphor ELP and Pluronic F127). Also, in data set [5], the “maximum concentration such that the solution remained stable” value is listed as 0.6 wt.%.

The record behind these values is PMC10609944, “Development of a Dosage form for a Photoswitchable Local Anesthetic Ethercaine” (Pharmaceuticals, 2023).
